# Results: patent US9512152B2, “Phospholipid compound containing unsaturated fatty acid derivative having cyclopropane ring” (NISHIZAKI BIOINFORMATION RESEARCH INSTITUTE, priority 2013, dated 2016)
# Tests used:
# synapse transmission = settings: patent document 1; cited from earlier work
# [1] = patent document 2; cited from earlier work
# [2] = induced by scopolamine; non-patent documents 1, 2; cited from earlier work
# [3] = tested on: 3T3L1-GLUT4myc adipocytes; assay: Analysis of GLUT4 trafficking (cellular membrane transport of GLUT4); format: cell-based; settings: 1 μM, 20 min, FIG. 7
# Protocol: 3T3L1-GLUT4myc fibroblast strain expressing GLUT4myc was used. The cells are constructed by inserting human c-MYC epitope (14 amino acids) into the first ectodomain. The cells were cultured in Dulbecco's Modified Eagles Medium (DMEM) added with 10% (v/v) bovine serum, penicillin (final concentration, 100 U/ml) and streptomycin (final concentration, 0.1 mg/ml) in a humid environment under 5% CO2 and 95% air at 37° C. When the cells reached confluence (day 0), the medium was exchanged with DMEM added with 10% (v/v) fetal bovine serum (FBS), 1 μM dexamethasone, 0.5 mM 3-isobutyl-methyl-xanthine and 0.1 mg/ml insulin to allow for differentiation from fibroblast into adipocyte. The medium was exchanged with DMEM added with 10% (v/v) FBS on day 3, day 7 and day 11. On day 14, the cells were used for the experiment.
# 3T3L1-GLUT4myc adipocytes were incubated in Krebs-Ringer-HEPES buffer [136 mM NaCl, 4.7 mM KCl, 1.25 mM CaCl2, 1.25 mM MgSO4 and 20 mM HEPES, pH 7.5] containing 0.2% (w/v) bovine serum albumin and added with 10 mM glucose at 37° C. for 1 hr. The cells were incubated in the presence or absence of insulin, phospholipid or a derivative thereof for 20 min. Then, the cells were homogenized by sonication in an ice-cooled mitochondria buffer containing 1% (v/v) protease inhibitor cocktail [210 mM mannitol, 70 mM sucrose, and 1 mM ethylenediaminetetraacetic acid (EDTA), 10 mM HEPES, pH 7.5]. Sequentially, the homogenate was centrifuged at 4° C. for 5 min at 3,000 rpm. The supernatant was further centrifuged at 4° C. for 15 min at 11,000 rpm. […] The protein concentration of each fraction was measured using BCA protein assay kit (Thermo Fisher Scientific, Waltham, Mass., USA). […] The immunoreactivity was detected using ECL kit (Invitrogen), and visualized using a chemical luminescence detection system (chemiluminescence detection system; GE Healthcare, Piscataway, N.J., USA). The signal density was measured using an image analysis software (Image Gauge software; GE Healthcare).
molecule,measurement,setting,value
"CCCCCC1CC1CC1CC1CCCCCCCC(=O)O (centres unmarked) [DCP-LA, 8-[2-(2-Pentyl-cyclopropylmethyl)-cyclopropyl]-octanoic acid]",Enhancement of synapse transmission (LTP-like),synapse transmission,can maintain stable LTP (long-teLm potentiation)-like enhancement of synapse transmission
CCCCC/C=C/C/C=C/CCCCCCCC(=O)OCC(COP(=O)(O)OCCN)OC(=O)CCCCCCC/C=C/C/C=C/CCCCC (centres unmarked) [dilinoleoyl•phosphatidylethanolamine],Cell death induction suppressive activity / endoplasmic reticulum stress suppressive activity,[1],"cell death induction suppressive activity, particularly, endoplasmic reticulum stress suppressive activity"
CCCCCCCC/C=C\CCCCCCCC(=O)O[C@H](COC(=O)CCCCCCCCCCCCCCC)COP(=O)([O-])OCC[N+](C)(C)C [1-palmitoyl-2-oleoyl-sn-glycero-3-phosphocholine],Improvement of spatial learning disorder and memory disorder,[2],improve spatial learning disorder and memory disorder induced by scopolamine
"CCCCC/C=C\C/C=C\CCCCCCCC(=O)OC[C@H](COP(=O)([O-])OCC[N+](C)(C)C)OC(=O)CCCCCCC/C=C\C/C=C\CCCCC [1,2-dilinoleoyl-sn-glycero-3-phosphocholine]",Improvement of spatial learning disorder and memory disorder,[2],improve spatial learning disorder and memory disorder induced by scopolamine
"insulin: insulin, comparison treatment in the GLUT4 trafficking analysis [reference compound]",Promotion of cellular membrane transport of GLUT4,[3],an action to promote cellular membrane transport of GLUT4
